Reference: patent US20060069132A1, “Azolecarboxamide herbicides” (priority 2004, published 2006)

How the values were obtained:
[1] = test system: small flower umbrella sedge; assay: Test B flooded paddy test; format: in vivo, Cyperus difformis; conditions: 1000 g ai/ha, scale 0 to 100 (0 no effect, 100 complete control)
Outline: (§1)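 Each value is a visual 0–100 response rating taken against controls 13 to 15 days after treatment in the greenhouse. Plants received formulated chemical postemergence at the 1- to 4-leaf stage or, in flooded paddy, at the 2-leaf stage.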

[2] = test system: corn; assay: Test B pre-/postemergence herbicide test; format: in vivo, Zea mays
Outline: (§2)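 Test chemicals in a non-phytotoxic solvent mixture with surfactant were applied preemergence to seeded species and postemergence to plants 2-18 cm tall (1- to 4-leaf stage); rice and barnyardgrass were also tested in a flooded paddy at the 2-leaf stage. Visual rating versus controls after 13-15 days in greenhouse, scale 0 (no effect) to 100 (complete control).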

[3] = test system: green foxtail; assay: Test C postemergence herbicide test; format: in vivo, Setaria viridis
Protocol: (§3) At the same time, plants selected from these crop and weed species and also winter barley (Hordeum vulgare L.), blackgrass (Alopecurus myosuroides Huds.), canarygrass (Phalaris minor Retz.), chickweed (Stellaria media (L.) Vill.), downy bromegrass (Bromus tectorum L.), green foxtail (Setaria viridis (L.) Beauv.), Italian ryegrass (Lolium multiflorum Lam.), wheat (Triticum aestivum L.), wild oat (Avenafatua L.) and windgrass (Apera spica-venti (L.) Beauv.) were treated with postemergence applications of some of the test chemicals formulated in the same manner. Plants ranged in height from 2 to 18 cm (1- to 4-leaf stage) for postemergence treatments. Plant species in the flooded paddy test consisted of rice (Oryza sativa), smallflower umbrella sedge (Cyperus difformis L.), ducksalad (Heteranthera limosa (Sw.) Willd.) and barnyardgrass (Echinochloa crus-galli (L.) Beauv.) grown to the 2-leaf stage for testing. Treated plants and controls were maintained in a greenhouse for 12 to 14 days, after which time all species were compared to controls and visually evaluated. Plant response ratings, summarized in Table C, are based on a scale of 0 to 100 where 0 is no effect and 100 is complete control. A dash (-) response means no test result.

[4] = test system: Italian ryegrass; assay: Test C postemergence herbicide test; format: in vivo, Lolium multiflorum
Protocol: as §3

[5] = test system: wheat; assay: Test C postemergence herbicide test; format: in vivo, Triticum aestivum
Protocol: as §3

[6] = test system: downy bromegrass; assay: Test C postemergence herbicide test; format: in vivo, Bromus tectorum
Protocol: as §3

[7] = test system: wild oat; assay: Test B postemergence herbicide test; format: in vivo, Avena fatua
Outline: as §1

[8] = test system: Surinam grass; assay: Test B pre-/postemergence herbicide test; format: in vivo, Urochloa decumbens
Outline: as §2

[9] = test system: velvetleaf; assay: Test B pre-/postemergence herbicide test; format: in vivo, Abutilon theophrasti
Outline: as §2

[10] = test system: lambsquarters; assay: Test B pre-/postemergence herbicide test; format: in vivo, Chenopodium album
Outline: as §2

[11] = test system: cocklebur; assay: Test B pre-/postemergence herbicide test; format: in vivo, Xanthium strumarium
Outline: (§4)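 Evaluation is visual, comparing treated with control plants on a scale where 0 means no effect and 100 means full control. Treatments were preemergence, or postemergence on seedlings 2–18 cm tall, and held 13–15 days in the greenhouse.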

[12] = test system: blackgrass; assay: Test B postemergence herbicide test; format: in vivo, Alopecurus myosuroides
Outline: as §1

[13] = test system: canarygrass; assay: Test C postemergence herbicide test; format: in vivo, Phalaris minor
Protocol: as §3

[14] = test system: barnyardgrass; assay: Test B flooded paddy test; format: in vivo, Echinochloa crus-galli; conditions: 1000 g ai/ha, scale 0 to 100 (0 no effect, 100 complete control)
Outline: as §1

[15] = test system: giant foxtail; assay: Test B pre-/postemergence herbicide test; format: in vivo, Setaria faberi
Outline: as §2

[16] = test system: large crabgrass; assay: Test B pre-/postemergence herbicide test; format: in vivo, Digitaria sanguinalis
Outline: as §2

[17] = test system: barnyardgrass; assay: Test B pre-/postemergence herbicide test; format: in vivo, Echinochloa crus-galli; conditions: for Barnyardgrass plant response rating: Postemergence, scale 0 (no effect) to 100 (complete control)
Outline: as §4

[18] = test system: rice; assay: Test B flooded paddy test; format: in vivo, Oryza sativa; conditions: 1000 g ai/ha, scale 0 to 100 (0 no effect, 100 complete control)
Outline: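 Paddy species grown to the 2-leaf stage under flooding; blackgrass sprayed postemergence at 2–18 cm (1- to 4-leaf stage). Plants kept in a greenhouse for 13 to 15 days, then visually rated against controls on 0 (no effect) to 100 (complete control).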

[19] = test system: wild oat; assay: Test C postemergence herbicide test; format: in vivo, Avenafatua
Protocol: as §3

[20] = test system: ducksalad; assay: Test B flooded paddy test; format: in vivo, Heteranthera limosa; conditions: 1000 g ai/ha, scale 0 to 100 (0 no effect, 100 complete control)
Outline: as §1

[21] = test system: pigweed; assay: Test B pre-/postemergence herbicide test; format: in vivo, Amaranthus retroflexus
Outline: as §2

[22] = test system: morningglory; assay: Test B pre-/postemergence herbicide test; format: in vivo, Ipomoea coccinea
Outline: as §4

[23] = test system: wheat; assay: Test B postemergence herbicide test; format: in vivo, Triticum aestivum; parameters: key to Wheat plant response rating: 0 = no effect, 100 = complete control
Outline: as §1

[24] = test system: blackgrass; assay: Test C postemergence herbicide test; format: in vivo, Alopecurus myosuroides
Protocol: as §3

[25] = test system: windgrass; assay: Test C postemergence herbicide test; format: in vivo, Apera spica-venti
Protocol: as §3

[26] = test system: winter barley; assay: Test C postemergence herbicide test; format: in vivo, Hordeum vulgare
Protocol: as §3

[27] = 125 g ai/ha, 0 is no effect, 100 is complete control, preemergence
[28] = Postemergence, 500 g ai/ha, scale 0 (no effect) to 100 (complete control)
[29] = postemergence, 125 g ai/ha, scale 0 to 100
[30] = Postemergence, 250 g ai/ha, scale 0 to 100, 0 no effect, 100 complete control
[31] = Postemergence, 500 g ai/ha, scale 0 to 100, 0 no effect, 100 complete control
[32] = postemergence, 62 g ai/ha, scale 0 to 100
[33] = Postemergence, 500 g ai/ha, scale 0 to 100

Structure (SMILES): C=CCN(CC=C)C(=O)c1ccc(F)c(NC(=O)c2cc(C(C)(C)C)nn2CC)c1 [Compound 431]
- Sedge, Umbrella plant response rating [1]: 80
- Plant response rating (0 to 100 scale), Corn [2, 27]: 0
- Corn plant response rating [2, 28]: 20
- Corn plant response rating [2, 29]: 20
- Plant response rating, Foxtail, Green [3, 30]: 60
- Plant response rating, Foxtail, Green [3, 31]: 65
- Plant response rating, Foxtail, Green [3, 29]: 60
- Plant response rating, Foxtail, Green [3, 32]: 45
- Plant response rating, Ryegrass, Italian [4, 31]: 55
- Plant response rating, Ryegrass, Italian [4, 29]: 45
- Plant response rating, Ryegrass, Italian [4, 32]: 40
- Plant response rating, Wheat [5, 31]: 45
- Plant response rating, Wheat [5, 29]: 40
- Plant response rating, Wheat [5, 32]: 40
- Plant response rating, Bromegrass, Downy [6, 30]: 55
- Plant response rating, Bromegrass, Downy [6, 31]: 60
- Plant response rating, Bromegrass, Downy [6, 29]: 45
- Plant response rating, Bromegrass, Downy [6, 32]: 40
- Oat, Wild plant response rating [7, 28]: 50
- Oat, Wild plant response rating [7, 29]: 30
- Plant response rating (0 to 100 scale), Surinam Grass [8, 27]: 10
- Surinam Grass plant response rating [8, 28]: 30
- Surinam Grass plant response rating [8, 29]: 20
- Plant response rating (0 to 100 scale), Velvetleaf [9, 27]: 20
- Velvetleaf plant response rating [9, 28]: 40
- Velvetleaf plant response rating [9, 29]: 20
- Plant response rating (0 to 100 scale), Lambsquarters [10, 27]: 60
- Lambsquarters plant response rating [10, 28]: 60
- Lambsquarters plant response rating [10, 29]: 40
- Plant response rating (0 to 100 scale), Cocklebur [11, 27]: 0
- Cocklebur plant response rating [11, 28]: 60
- Cocklebur plant response rating [11, 29]: 30
- Blackgrass plant response rating [12, 28]: 50
- Blackgrass plant response rating [12, 29]: 30
- Plant response rating, Canarygrass [13, 30]: 60
- Plant response rating, Canarygrass [13, 31]: 60
- Plant response rating, Canarygrass [13, 29]: 45
- Plant response rating, Canarygrass [13, 32]: 40
- Barnyardgrass plant response rating [14]: 60
- Plant response rating (0 to 100 scale), Foxtail, Giant [15, 27]: 50
- Foxtail, Giant plant response rating [15, 28]: 30
- Foxtail, Giant plant response rating [15, 29]: 20
- Plant response rating (0 to 100 scale), Crabgrass, Large [16, 27]: 60
- Crabgrass, Large plant response rating [16, 28]: 30
- Crabgrass, Large plant response rating [16, 29]: 20
- Plant response rating (0 to 100 scale), Barnyardgrass [17, 27]: 10
- Barnyardgrass plant response rating ([17]; 125 g ai/ha): 10
- Barnyardgrass plant response rating ([17]; 500 g ai/ha): 20
- Rice plant response rating [18]: 30
- Plant response rating, Oat, Wild [19, 31]: 65
- Plant response rating, Oat, Wild [19, 29]: 55
- Plant response rating, Oat, Wild [19, 32]: 45
- Ducksalad plant response rating [20]: 80
- Plant response rating (0 to 100 scale), Pigweed [21, 27]: 40
- Pigweed plant response rating [21, 28]: 70
- Pigweed plant response rating [21, 29]: 50
- Plant response rating (0 to 100 scale), Morningglory [22, 27]: 0
- Morningglory plant response rating [22, 28]: 70
- Morningglory plant response rating [22, 29]: 40
- Wheat plant response rating ([23]; 500 g ai/ha, scale 0 to 100, 0 no effect, 100 complete control, preemergence): 10
- Wheat plant response rating [23, 28]: 30
- Wheat plant response rating [23, 29]: 30
- Blackgrass plant response rating [24, 33]: 60
- Plant response rating, Blackgrass [24, 30]: 60
- Plant response rating, Blackgrass [24, 29]: 55
- Plant response rating, Blackgrass [24, 32]: 45
- Plant response rating, Windgrass [25, 31]: 60
- Plant response rating, Windgrass [25, 29]: 40
- Plant response rating, Windgrass [25, 32]: 40
- Barley, Winter plant response rating [26, 33]: 60
- Plant response rating, Barley, Winter [26, 30]: 45
- Plant response rating, Barley, Winter ([26]; postemergence, 125 g ai/ha, scale 0 to 100 (0 no effect, 100 complete control)): 40
- Plant response rating, Barley, Winter ([26]; postemergence, 62 g ai/ha, scale 0 to 100 (0 no effect, 100 complete control)): 40
